Test results from paper PMC11011526, “Identification of Inhibitors of the Disease-Associated Protein Phosphatase Scp1 Using Antibody Mimetic Molecules” (International Journal of Molecular Sciences, 2024).

Columns and labels:
Scp3 = biological target: T1, Scp3 (Homo sapiens, UniProt O15194); test: colorimetric pNPP phosphatase assay, absorbance […] nm; type: biochemical; settings: 20 mM Na-maleate pH 5.5, 10 mM MgCl2; 10 mM pNPP; 37 °C; 7 min
T1 construct: gene CTDSPL; recombinant, GST tag and Myc-His6 tag
T1 sequence (O15194 1-276): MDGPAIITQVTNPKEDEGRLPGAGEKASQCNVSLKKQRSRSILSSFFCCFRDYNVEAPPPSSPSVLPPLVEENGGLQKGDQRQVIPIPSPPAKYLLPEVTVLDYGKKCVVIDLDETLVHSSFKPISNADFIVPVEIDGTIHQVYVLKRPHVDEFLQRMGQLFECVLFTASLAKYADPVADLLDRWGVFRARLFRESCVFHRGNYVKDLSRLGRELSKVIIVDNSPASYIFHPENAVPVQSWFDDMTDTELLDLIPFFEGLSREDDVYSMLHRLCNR

Fcp1 = biological target: T2, Fcp1 (Homo sapiens, UniProt Q9Y5B0); test: as above; type: biochemical; settings: 20 mM Na-maleate pH 5.5, 10 mM MgCl2; 10 mM pNPP; 37 °C; 60 min
T2 construct: gene CTDP1; recombinant, GST tag and Myc-His6 tag
T2 sequence (Q9Y5B0 1-961): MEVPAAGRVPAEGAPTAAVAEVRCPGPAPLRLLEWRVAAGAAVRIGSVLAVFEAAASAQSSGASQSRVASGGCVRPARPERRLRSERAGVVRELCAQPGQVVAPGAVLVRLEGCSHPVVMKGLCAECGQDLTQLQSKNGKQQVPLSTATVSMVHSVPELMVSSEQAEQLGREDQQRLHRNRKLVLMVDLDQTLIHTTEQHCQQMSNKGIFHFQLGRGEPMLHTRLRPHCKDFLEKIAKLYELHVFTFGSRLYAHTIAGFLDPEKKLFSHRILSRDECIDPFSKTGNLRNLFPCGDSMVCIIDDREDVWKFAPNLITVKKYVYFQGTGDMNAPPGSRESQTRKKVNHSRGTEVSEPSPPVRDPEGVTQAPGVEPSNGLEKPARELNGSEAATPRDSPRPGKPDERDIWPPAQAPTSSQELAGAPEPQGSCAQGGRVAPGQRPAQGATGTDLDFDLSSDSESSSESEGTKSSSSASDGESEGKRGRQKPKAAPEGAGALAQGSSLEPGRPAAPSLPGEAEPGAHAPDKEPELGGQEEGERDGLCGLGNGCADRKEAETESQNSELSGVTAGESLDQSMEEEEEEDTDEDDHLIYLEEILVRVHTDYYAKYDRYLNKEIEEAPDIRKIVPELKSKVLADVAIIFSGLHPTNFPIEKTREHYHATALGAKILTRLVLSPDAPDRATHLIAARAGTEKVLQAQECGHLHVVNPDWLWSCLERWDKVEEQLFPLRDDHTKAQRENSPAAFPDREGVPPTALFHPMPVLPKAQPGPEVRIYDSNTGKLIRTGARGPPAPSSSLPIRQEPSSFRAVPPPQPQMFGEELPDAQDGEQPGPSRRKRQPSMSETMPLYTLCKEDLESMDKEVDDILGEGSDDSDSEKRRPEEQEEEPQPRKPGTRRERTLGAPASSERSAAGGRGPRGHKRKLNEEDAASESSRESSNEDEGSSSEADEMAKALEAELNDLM

Scp2 = biological target: T3, Scp2 (Homo sapiens, UniProt O14595); test: as above; type: biochemical; settings: 20 mM Na-maleate pH 5.5, 10 mM MgCl2; 10 mM pNPP; 37 °C; 7 min
T3 construct: gene CTDSP2; recombinant, GST tag and Myc-His6 tag
T3 sequence (O14595 1-271): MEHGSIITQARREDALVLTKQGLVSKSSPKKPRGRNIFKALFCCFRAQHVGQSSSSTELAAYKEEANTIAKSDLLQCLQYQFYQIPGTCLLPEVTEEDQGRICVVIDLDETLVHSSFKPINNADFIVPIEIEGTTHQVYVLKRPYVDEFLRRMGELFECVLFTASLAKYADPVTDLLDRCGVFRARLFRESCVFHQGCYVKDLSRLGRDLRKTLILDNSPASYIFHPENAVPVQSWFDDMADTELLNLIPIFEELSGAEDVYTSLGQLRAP

Scp1 [1] = biological target: T4, Scp1 (Homo sapiens, UniProt Q9GZU7); test: as above; type: biochemical; settings: 20 mM Na-maleate pH 5.5, 10 mM MgCl2; His6-Scp1 10 nM; no added adnectin
T4 construct: gene CTDSP1; recombinant in E. coli Rosetta, Talon purified; His6-Scp1 (kinetics) or GST-Scp1-Myc-His6 (specificity assay)
T4 sequence (Q9GZU7 1-261): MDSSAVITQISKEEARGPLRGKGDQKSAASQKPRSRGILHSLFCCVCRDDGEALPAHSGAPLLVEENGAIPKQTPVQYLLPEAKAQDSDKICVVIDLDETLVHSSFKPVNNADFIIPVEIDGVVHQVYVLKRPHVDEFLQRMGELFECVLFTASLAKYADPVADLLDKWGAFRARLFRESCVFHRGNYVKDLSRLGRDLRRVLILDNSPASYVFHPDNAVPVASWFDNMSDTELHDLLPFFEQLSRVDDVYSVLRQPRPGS

Scp1 [2] = biological target: T4, Scp1; test: competition ELISA against FG-1Adn binding; settings: 100 µM rabeprazole; 20 mM Na-maleate pH 5.5, 150 mM NaCl, 10 mM MgCl2; R.T.; indirect, displacement of adnectin FG-1Adn
FG-1Adn (human) = test: BLI; BLItz system, Advanced Kinetics mode; biotinylated FG-1Adn loaded on streptavidin biosensors; 20 mM Na-maleate (pH 5.5), 150 mM NaCl, 10 mM MgCl2, 0.05% Tween; 250 nM Scp1, 120 s association, 120 s dissociation; 1:1 Langmuir model

With `O=[N+]([O-])c1ccc(OP(=O)(O)O)cc1` [pNPP] the “colorimetric pNPP phosphatase assay, absorbance 410 nm” value (“colorimetric pNPP phosphatase assay” for short) (Scp3) was “inhibitory effects of FG-1Adn inhibition against FCP/SCP phosphatases using pNPP as a substrate”, the “colorimetric pNPP phosphatase assay” value (Fcp1) was “inhibitory effects of FG-1Adn inhibition against FCP/SCP phosphatases using pNPP as a substrate” and the “colorimetric pNPP phosphatase assay” value (Scp2) was “inhibitory effects of FG-1Adn inhibition against FCP/SCP phosphatases using pNPP as a substrate”. The “colorimetric pNPP phosphatase assay” value (Scp1 [1]) was “Lineweaver–Burk plot analysis was performed using pNPP as a substrate”.

`COCCCOc1ccnc(C[S+]([O-])c2nc3ccccc3[nH]2)c1C` (stereo not drawn) [rabeprazole] was tested, and the “almost complete inhibition of FG-1Adn binding” value (Scp1 [2]) was “rabeprazole almost completely inhibited the binding of FG-1Adn to Scp1”.

B1: Scp1 (enzyme)
chain: MDSSAVITQISKEEARGPLRGKGDQKSAASQKPRSRGILHSLFCCVCRDDGEALPAHSGAPLLVEENGAIPKQTPVQYLLPEAKAQDSDKICVVIDLDETLVHSSFKPVNNADFIIPVEIDGVVHQVYVLKRPHVDEFLQRMGELFECVLFTASLAKYADPVADLLDKWGAFRARLFRESCVFHRGNYVKDLSRLGRDLRRVLILDNSPASYVFHPDNAVPVASWFDNMSDTELHDLLPFFEQLSRVDDVYSVLRQPRPGS
B1 was tested, and the Kd (FG-1Adn (human)) was 0.0487 µM.
